Patent US11135200B2, “Antimicrobial drug synthesis and therapeutic compositions” (priority 2014, dated 2021)
Read-outs that look alike come from different tables or passages of the source.

Legend:
[1] = Pharmacokinetics after administration of rac-ornidazole in a formulation; format: in vivo, human; details: for AUC of the component compared with rac-ornidazole / T1/2 of the component compared with rac-ornidazole: after a single administration of rac-ornidazole
prothrombin time = assay: Effect on prothrombin time; details: relative to the Ornidazole racemic mixture

Row | half-life ([1]; human, in vivo, after a single administration of rac-ornidazole in a formulation, read-out: elimination half-life (T1/2)) | Tmax ([1]; human, in vivo, after administration of rac-Ornidazole in a formulation) | half-life ([1]; human, in vivo, after oral administration, read-out: terminal elimination half-life) | Cmax ([1]; human, in vivo, after single administration of rac-ornidazole in a formulation) | Compound | AUC of the component compared with rac-ornidazole [1] | T1/2 of the component compared with rac-ornidazole [1] | effect on prothrombin time (prothrombin time)
1 | 14 to 18 h | 2 to 4 h | 14 to 18 h | 9000 to 31500 ng/mL | Cc1ncc([N+](=O)[O-])n1CC(O)CCl (racemic) [(rac)-ornidazole, 1-chloro-3-(2-methyl-5-nitro-1H-imidazol-1-yl)propan-2-ol, reference compound] | – | – | –
2 | – | – | – | – | Cc1ncc([N+](=O)[O-])n1C[C@@H](O)CCl [(R)-ornidazole] | similar | similar | diminished effect on prothrombin time
3 | – | – | – | – | Cc1ncc([N+](=O)[O-])n1C[C@H](O)CCl [(S)-ornidazole] | similar | similar | diminished effect on prothrombin time
